Data published in patent US20090197914A1, “Piperidine Derivatives, Their Process for Preparation, Their Use as Therapeutic Agents and Pharmaceutical Compositions Containing Them” (priority 2006, published 2009).
pKi: −log10 of the molar value.

How the values were obtained:
[1] = Intrinsic clearance with human liver microsomes; type: in vitro ADME; details: human liver microsomes 1 mg protein/ml, NADPH, pH 7.4
Experimental: Determination of Intrinsic Clearance with Human Liver Microsomes
Frozen human liver microsomes (BD Gentest, Oxford) were defrosted and were then diluted with 0.1 M pH 7.4 phosphate buffer at 4° C. to 1 mg protein/ml. 0.45 mL aliquots of the microsome suspension were dispensed into flat-bottomed vials (1 per compound) and were allowed to come to room temperature (5 min). During the warming time, 5 μL of solution of each test compound (typically 100 μM in DMSO) was dispensed into separate vials resulting in a final DMSO concentration of 1%. 50 μL of a 10 mM solution of NADPH in phosphate buffer (0.1 M pH 7.4, 37° C.) was added to each vial to initiate metabolism.
50 μL Aliquots of the mixtures were removed at measured intervals and were immediately quenched by addition to 100 μL of methanol cooled in ice. The quenched samples were kept cold (at −20° C. or less) for at least 1 h and were then centrifuged to remove protein.
The supernatant solution was analysed using quantitative LCMS for the presence of test compound. From the concentrations of test compound at different time points a T1/2 may be calculated which may be converted to an intrinsic clearance using the equation: CLint=ln 2/T1/2.

[2] = target: T1, human recombinant CCR3 receptors (Homo sapiens, UniProt P51677); test: Compound affinity at human recombinant CCR3 receptors by radioligand competition, CHO-K1 cell membranes; type: binding; details: mean pKi by Cheng-Prussof correction of pIC50, minimum of 2 separate experiments, 2 nM [3H] ligand, 2 h at 37° C.
T1 construct: expressed in transfected cells; membranes
T1 sequence (P51677 1-355): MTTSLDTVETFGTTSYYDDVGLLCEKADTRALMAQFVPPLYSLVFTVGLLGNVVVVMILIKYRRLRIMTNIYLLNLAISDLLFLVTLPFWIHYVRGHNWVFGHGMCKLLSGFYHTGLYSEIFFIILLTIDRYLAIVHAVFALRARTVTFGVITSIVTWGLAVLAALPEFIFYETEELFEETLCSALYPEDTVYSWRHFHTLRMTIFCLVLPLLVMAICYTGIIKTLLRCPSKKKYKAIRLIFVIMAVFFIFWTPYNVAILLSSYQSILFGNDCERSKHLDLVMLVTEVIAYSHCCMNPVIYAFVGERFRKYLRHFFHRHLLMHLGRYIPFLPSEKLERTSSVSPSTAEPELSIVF
Experimental: Determination of Compound Affinity at Human Recombinant CCR3 Receptors Assessed By Competition of [^3H]-4-(2,4-dichloro-3-methylphenoxy)-1′-[4-(methylsulfonyl)benzoyl]-1,4′-bipiperidine for CHO-K1 Cell Membranes In Vitro
Membranes, prepared from CHO-K1 cells stably expressing recombinant human CCR3, suspended in assay buffer (50 mM Tris-Base, pH 7.4; containing sodium chloride (100 mM) and magnesium chloride (2 mM)) were incubated in the presence of 2 nM [^3H]-4-(2,4-dichloro-3-methylphenoxy)-1′-[4-(methylsulfonyl)benzoyl]-1,4′-bipiperidine, along with vehicle (1% (v/v) DMSO), 4-(4-chloro-3-methylphenoxy)-1′-[2-(methylsulfonyl)benzoyl]-1,4′-bipiperidine (to define non-specific binding) or test compound for 2 h at 37° C. in round bottomed 96-well plates. […] Four washes (250 μL) with wash buffer (50 mM Tris-Base, pH 7.4 containing sodium chloride (500 mM) and magnesium chloride (2 mM)) were performed at 4° C. to remove unbound radioactivity. […] The plates were sealed (TopSeal A) and filter-bound radioactivity was measured with a scintillation counter (TopCount, Packard BioScience) using a 1 minute counting protocol.
Specific binding was determined from values of the control wells minus the values for the NSB wells for each assay plate. […] Data were presented as mean pKi values (calculated by applying a Cheng-Prussof correction to pIC50 values) from a minimum of 2 separate experiments.

CLint scaled at 1 µM [1]: < 3 mL/min/kg | pKi [2]: 8.50
Compound: Cc1c(CN2CCC(NC(=O)COc3nc(N)c(C(=O)O)cc3F)CC2)ccc(Cl)c1Cl [Example 4, 2-Amino-6-{[1-(3,4-dichloro-2-methyl-benzyl)-piperidin-4-ylcarbamoyl]-methoxy}-5-fluoro-nicotinic acid]
